# Source: patent US20140357512A1, “HISTONE DEACETYLASE (HDAC) BIOMARKERS IN MULTIPLE MYELOMA” (priority 2013, published 2014)
# Test system: human myeloma cell line MM.1S
# Assay: Biological pathway analysis of SILAC biomarker peptides against pathway database (broadinstitute gsea)
# Protocol: Once biomarker peptides are identified for a specific drug by the SILAC method, the biomarker peptides may be compared to peptides/proteins in a biological pathway database in order to identify major biological pathways or functions implicated by the drug's action. A preferred pathway analysis website is at www dot broadinstitute dot org/gsea/index dot jsp.
# This example describes the biological pathway analysis that was performed on each of Compound A, Compound B, and Tubastatin A.
# Once biomarker peptides were identified for a specific drug (either Compound A, Compound B, or Tubastatin A) by the SILAC method in Example 1, the biomarker peptides were compared to peptides/proteins in the biological pathway database at www dot broadinstitute dot org/gsea/index dot jsp in order to identify major biological pathways or functions implicated by the drug's action.
structure (smiles),measurement,setting,value
"O=C(CCCCCCNC(=O)c1cnc(N(c2ccccc2)c2ccccc2)nc1)NO [Compound A, 2-(diphenylamino)-N-(7-(hydroxyamino)-7-oxoheptyl)pyrimidine-5-carboxamide]",Observed: number of genes in pathway REACTOME_PACKAGING_OF_TELOMERE_ENDS,Pathway_size 48,35
same,"Ratio observed/pathway size, REACTOME_PACKAGING_OF_TELOMERE_ENDS",Pathway_size 48,0.7292
same,Observed: number of genes in pathway REACTOME_RNA_POL_I_PROMOTER_OPENING,Pathway_size 61,49
same,"Ratio observed/pathway size, REACTOME_RNA_POL_I_PROMOTER_OPENING",Pathway_size 61,0.8033
same,Observed: number of genes in pathway REACTOME_DEPOSITION_OF_NEW_CENPA_CONTAINING_NUCLEOSOMES_AT_THE_CENTROMERE,Pathway_size 64,34
same,"Ratio observed/pathway size, REACTOME_DEPOSITION_OF_NEW_CENPA_CONTAINING_NUCLEOSOMES_AT_THE_CENTROMERE",Pathway_size 64,0.5312
same,Observed: number of genes in pathway […]_UNKNOWN,Pathway_size 66,32
same,"Ratio observed/pathway size, […]_UNKNOWN",Pathway_size 66,0.4848
same,Observed: number of genes in pathway GCM_TPT1,Pathway_size 70,37
same,"Ratio observed/pathway size, GCM_TPT1",Pathway_size 70,0.5286
same,Observed: number of genes in pathway REACTOME_MEIOTIC_SYNAPSIS,Pathway_size 71,35
same,"Ratio observed/pathway size, REACTOME_MEIOTIC_SYNAPSIS",Pathway_size 71,0.493
same,Observed: number of genes in pathway REACTOME_TELOMERE_MAINTENANCE,Pathway_size 75,36
same,"Ratio observed/pathway size, REACTOME_TELOMERE_MAINTENANCE",Pathway_size 75,0.48
same,Observed: number of genes in pathway STRUCTURAL_CONSTITUENT_OF_RIBOSOME,Pathway_size 80,33
same,"Ratio observed/pathway size, STRUCTURAL_CONSTITUENT_OF_RIBOSOME",Pathway_size 80,0.4125
same,Observed: number of genes in pathway MIPS_RIBOSOME_CYTOPLASMIC,Pathway_size 81,42
same,Observed: number of genes in pathway REACTOME_AMYLOIDS,Pathway_size 81,49
same,"Ratio observed/pathway size, MIPS_RIBOSOME_CYTOPLASMIC",Pathway_size 81,0.5185
same,"Ratio observed/pathway size, REACTOME_AMYLOIDS",Pathway_size 81,0.6049
same,Observed: number of genes in pathway REACTOME_MEIOTIC_RECOMBINATION,Pathway_size 84,50
same,"Ratio observed/pathway size, REACTOME_MEIOTIC_RECOMBINATION",Pathway_size 84,0.5952
same,Observed: number of genes in pathway REACTOME_RNA_POL_I_TRANSCRIPTION,Pathway_size 86,50
same,"Ratio observed/pathway size, REACTOME_RNA_POL_I_TRANSCRIPTION",Pathway_size 86,0.5814
same,Observed: number of genes in pathway KEGG_RIBOSOME,Pathway_size 88,42
same,"Ratio observed/pathway size, KEGG_RIBOSOME",Pathway_size 88,0.4773
same,Observed: number of genes in pathway MORF_TPT1,Pathway_size 102,40
same,"Ratio observed/pathway size, MORF_TPT1",Pathway_size 102,0.3922
same,Observed: number of genes in pathway MIPS_NOP56P_ASSOCIATED_PRE_RRNA_COMPLEX,Pathway_size 104,44
same,"Ratio observed/pathway size, MIPS_NOP56P_ASSOCIATED_PRE_RRNA_COMPLEX",Pathway_size 104,0.4231
same,Observed: number of genes in pathway REACTOME_MEIOSIS,Pathway_size 112,50
same,"Ratio observed/pathway size, REACTOME_MEIOSIS",Pathway_size 112,0.4464
same,Observed: number of genes in pathway GCM_NPM1,Pathway_size 116,41
same,"Ratio observed/pathway size, GCM_NPM1",Pathway_size 116,0.3534
same,Observed: number of genes in pathway REACTOME_RNA_POL_I_RNA_POL_III_AND_MITOCHONDRIAL_TRANSCRIPTION,Pathway_size 119,50
same,"Ratio observed/pathway size, REACTOME_RNA_POL_I_RNA_POL_III_AND_MITOCHONDRIAL_TRANSCRIPTION",Pathway_size 119,0.4202
same,Observed: number of genes in pathway GNF2_EIF3S6,Pathway_size 121,41
same,"Ratio observed/pathway size, GNF2_EIF3S6",Pathway_size 121,0.3388
same,Observed: number of genes in pathway GCM_ACTG1,Pathway_size 124,39
same,"Ratio observed/pathway size, GCM_ACTG1",Pathway_size 124,0.3145
same,Observed: number of genes in pathway MORF_ACTG1,Pathway_size 138,53
same,"Ratio observed/pathway size, MORF_ACTG1",Pathway_size 138,0.3841
same,Observed: number of genes in pathway KEGG_SYSTEMIC_LUPUS_ERYTHEMATOSUS,Pathway_size 139,54
same,"Ratio observed/pathway size, KEGG_SYSTEMIC_LUPUS_ERYTHEMATOSUS",Pathway_size 139,0.3885
same,Observed: number of genes in pathway REACTOME_PEPTIDE_CHAIN_ELONGATION,Pathway_size 145,41
same,"Ratio observed/pathway size, REACTOME_PEPTIDE_CHAIN_ELONGATION",Pathway_size 145,0.2828
same,Observed: number of genes in pathway MORF_NME2,Pathway_size 154,48
same,"Ratio observed/pathway size, MORF_NME2",Pathway_size 154,0.3117
same,Observed: number of genes in pathway REACTOME_INFLUENZA_VIRAL_RNA_TRANSCRIPTION_AND_REPLICATION,Pathway_size 161,42
same,"Ratio observed/pathway size, REACTOME_INFLUENZA_VIRAL_RNA_TRANSCRIPTION_AND_REPLICATION",Pathway_size 161,0.2609
same,Observed: number of genes in pathway MORF_NPM1,Pathway_size 162,59
same,"Ratio observed/pathway size, MORF_NPM1",Pathway_size 162,0.3642
same,Observed: number of genes in pathway REACTOME_3_UTR_MEDIATED_TRANSLATIONAL_REGULATION,Pathway_size 166,43
same,"Ratio observed/pathway size, REACTOME_3_UTR_MEDIATED_TRANSLATIONAL_REGULATION",Pathway_size 166,0.259
same,Observed: number of genes in pathway REACTOME_NONSENSE_MEDIATED_DECAY_ENHANCED_BY_THE_EXON_JUNCTION_COMPLEX,Pathway_size 167,41
same,"Ratio observed/pathway size, REACTOME_NONSENSE_MEDIATED_DECAY_ENHANCED_BY_THE_EXON_JUNCTION_COMPLEX",Pathway_size 167,0.2455
same,Observed: number of genes in pathway REACTOME_SRP_DEPENDENT_COTRANSLATIONAL_PROTEIN_TARGETING_TO_MEMBRANE,Pathway_size 170,46
same,"Ratio observed/pathway size, REACTOME_SRP_DEPENDENT_COTRANSLATIONAL_PROTEIN_TARGETING_TO_MEMBRANE",Pathway_size 170,0.2706
same,Observed: number of genes in pathway REACTOME_INFLUENZA_LIFE_CYCLE,Pathway_size 195,47
same,"Ratio observed/pathway size, REACTOME_INFLUENZA_LIFE_CYCLE",Pathway_size 195,0.241
same,Observed: number of genes in pathway MORF_ANP32B,Pathway_size 197,43
same,"Ratio observed/pathway size, MORF_ANP32B",Pathway_size 197,0.2183
same,Observed: number of genes in pathway REACTOME_TRANSCRIPTION,Pathway_size 207,53
same,"Ratio observed/pathway size, REACTOME_TRANSCRIPTION",Pathway_size 207,0.256
same,Observed: number of genes in pathway REACTOME_TRANSLATION,Pathway_size 211,48
same,"Ratio observed/pathway size, REACTOME_TRANSLATION",Pathway_size 211,0.2275
same,Observed: number of genes in pathway MORF_UBE2I,Pathway_size 238,55
same,"Ratio observed/pathway size, MORF_UBE2I",Pathway_size 238,0.2311
same,Observed: number of genes in pathway MORF_RAN,Pathway_size 268,53
same,"Ratio observed/pathway size, MORF_RAN",Pathway_size 268,0.1978
same,Observed: number of genes in pathway MODULE_151,Pathway_size 318,61
same,"Ratio observed/pathway size, MODULE_151",Pathway_size 318,0.1918
same,Observed: number of genes in pathway MODULE_83,Pathway_size 320,65
same,"Ratio observed/pathway size, MODULE_83",Pathway_size 320,0.2031
same,Observed: number of genes in pathway MODULE_114,Pathway_size 338,64
same,"Ratio observed/pathway size, MODULE_114",Pathway_size 338,0.1893
same,Observed: number of genes in pathway HSIAO_HOUSEKEEPING_GENES,Pathway_size 389,87
same,"Ratio observed/pathway size, HSIAO_HOUSEKEEPING_GENES",Pathway_size 389,0.2236
same,Observed: number of genes in pathway MOOTHA_HUMAN_MITODB_6_2002,Pathway_size 429,66
same,"Ratio observed/pathway size, MOOTHA_HUMAN_MITODB_6_2002",Pathway_size 429,0.1538
same,Observed: number of genes in pathway MOOTHA_MITOCHONDRIA,Pathway_size 447,57
same,"Ratio observed/pathway size, MOOTHA_MITOCHONDRIA",Pathway_size 447,0.1275
same,Observed: number of genes in pathway REACTOME_METABOLISM_OF_PROTEINS,Pathway_size 496,69
same,"Ratio observed/pathway size, REACTOME_METABOLISM_OF_PROTEINS",Pathway_size 496,0.1391
same,Observed: number of genes in pathway KIM_BIPOLAR_DISORDER_OLIGODENDROCYTE_DENSITY_CORR_UP,Pathway_size 681,64
same,"Ratio observed/pathway size, KIM_BIPOLAR_DISORDER_OLIGODENDROCYTE_DENSITY_CORR_UP",Pathway_size 681,0.09398
same,Observed: number of genes in pathway MARTENS_TRETINOIN_RESPONSE_DN,Pathway_size 841,69
same,"Ratio observed/pathway size, MARTENS_TRETINOIN_RESPONSE_DN",Pathway_size 841,0.08205
same,Observed: number of genes in pathway GRADE_COLON_CANCER_UP,Pathway_size 870,75
same,"Ratio observed/pathway size, GRADE_COLON_CANCER_UP",Pathway_size 870,0.08621
same,Observed: number of genes in pathway DANG_BOUND_BY_MYC,Pathway_size 1102,88
same,"Ratio observed/pathway size, DANG_BOUND_BY_MYC",Pathway_size 1102,0.07985
same,Observed: number of genes in pathway BLALOCK_ALZHEIMERS_DISEASE_DN,Pathway_size 1237,81
same,"Ratio observed/pathway size, BLALOCK_ALZHEIMERS_DISEASE_DN",Pathway_size 1237,0.06548
same,Observed: number of genes in pathway CYTOPLASMIC_PART,Pathway_size 1383,96
same,"Ratio observed/pathway size, CYTOPLASMIC_PART",Pathway_size 1383,0.06941
same,Observed: number of genes in pathway PUJANA_BRCA1_PCC_NETWORK,Pathway_size 1651,107
same,"Ratio observed/pathway size, PUJANA_BRCA1_PCC_NETWORK",Pathway_size 1651,0.06481
same,Observed: number of genes in pathway CYTOPLASM,Pathway_size 2130,117
same,"Ratio observed/pathway size, CYTOPLASM",Pathway_size 2130,0.05493
